Laboratory results: publication PMC3261141, “Largazole and Its Derivatives Selectively Inhibit Ubiquitin Activating Enzyme (E1)” (PLoS ONE, 2012)

Experiments:
[1] = molecular target: T1, ubiquitin-activating enzyme E1 (UBA1) (Homo sapiens, UniProt P22314); assay: E1-ubiquitin thioester gel assay with fluorescein-ubiquitin; type: biochemical
T1 construct: recombinant human UBA1, GST tag removed by thrombin
T1 sequence (P22314 2-1058): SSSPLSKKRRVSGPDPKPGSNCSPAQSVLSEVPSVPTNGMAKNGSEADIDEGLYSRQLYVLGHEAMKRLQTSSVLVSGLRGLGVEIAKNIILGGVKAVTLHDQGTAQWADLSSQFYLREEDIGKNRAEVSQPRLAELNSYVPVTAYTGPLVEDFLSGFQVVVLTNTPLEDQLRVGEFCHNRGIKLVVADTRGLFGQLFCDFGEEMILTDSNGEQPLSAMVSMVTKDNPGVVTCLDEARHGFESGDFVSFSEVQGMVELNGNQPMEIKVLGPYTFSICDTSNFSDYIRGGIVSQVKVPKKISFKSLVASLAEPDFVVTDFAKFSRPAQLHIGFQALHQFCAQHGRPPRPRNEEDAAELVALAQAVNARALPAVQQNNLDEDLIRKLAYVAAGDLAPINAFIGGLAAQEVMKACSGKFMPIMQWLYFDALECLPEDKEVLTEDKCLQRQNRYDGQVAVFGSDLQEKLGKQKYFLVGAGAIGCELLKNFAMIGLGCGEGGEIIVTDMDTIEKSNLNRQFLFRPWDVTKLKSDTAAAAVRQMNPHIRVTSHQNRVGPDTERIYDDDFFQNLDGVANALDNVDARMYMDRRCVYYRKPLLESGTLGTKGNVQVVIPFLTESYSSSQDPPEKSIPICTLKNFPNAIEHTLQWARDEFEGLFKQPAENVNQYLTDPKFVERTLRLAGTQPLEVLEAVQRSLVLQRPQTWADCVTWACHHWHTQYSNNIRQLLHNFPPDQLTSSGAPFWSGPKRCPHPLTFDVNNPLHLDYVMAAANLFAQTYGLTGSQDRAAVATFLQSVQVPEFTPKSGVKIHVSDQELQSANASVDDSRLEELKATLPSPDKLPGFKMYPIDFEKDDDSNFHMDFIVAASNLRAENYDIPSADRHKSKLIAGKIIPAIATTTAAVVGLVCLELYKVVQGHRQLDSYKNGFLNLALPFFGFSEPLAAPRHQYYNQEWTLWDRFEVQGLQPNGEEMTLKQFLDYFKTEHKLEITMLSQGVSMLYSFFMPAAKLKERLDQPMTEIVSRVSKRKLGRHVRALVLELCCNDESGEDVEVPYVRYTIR

[2] = molecular target: T1, ubiquitin-activating enzyme E1 (UBA1); assay: thioester gel assay; PPi:ATP and AMP:ATP exchange assays; type: biochemical

Row | Structure (SMILES) | IC50 [1] [µM] | IC50 [2] [µM]
1 | CCCCCCCC(=O)OCC/C=C/[C@@H]1CC(=O)NCc2nc(cs2)C2=N[C@@](C)(CS2)C(=O)N[C@@H](C(C)C)C(=O)O1 [E, Largazole ester] | ~25 | 
2 | CCCCCCCC(=O)CCC/C=C/[C@@H]1CC(=O)NCc2nc(cs2)C2=N[C@@](C)(CS2)C(=O)N[C@@H](C(C)C)C(=O)O1 [K, Largazole ketone] |  | ~30
3 | CCCCCCCC(=O)SCC/C=C/[C@@H]1CC(=O)NCc2nc(cs2)C2=N[C@@](C)(CS2)C(=O)N[C@@H](C(C)C)C(=O)O1 [L, Largazole] | ~29 | 
